Details of data set [1]: species or system cattle. The settings on record: bovine, in vivo, sc, 4.4 mg/kg. The method, then:
Cattle were administered a single subcutaneous dose (4.4 mg/kg body weight) of crystalline ceftiofur free acid and amorphous ceftiofur free acid (both prepared and then formulated as described above in Examples 1, 3 and 4). The concentration of plasma ceftiofur and desfuroylceftiofur related metabolites were determined over time for 120 hours. The primary decision criteria (that most related to efficacy) was considered to be the time that the ceftiofur metabolite concentrations remained above 0.2 mcg/ml (t>0.2). Less important parameters calculated included "area under the concentration-time curve" (AUC) for each treatment and time to maximum concentrations (tmax).
The results are shown graphically in FIG. 7 below by plotting plasma concentration of desfuroylceftiofur acetamide (DCA) versus time using average data for 6 animals/treatment. […] This is especially important in light of the two forms obtaining statistically equivalent peak concentrations (9.1 mcg/ml for the amorphous ceftiofur free acid versus 7.3 mcg/ml for the crystalline ceftiofur free acid).

Data set [2] is described as follows: Stability in bulk, aqueous and other formulations. The data set is classed as physicochemical.
Data set [3] in a line: In vitro dissolution of ceftiofur oil suspension formulations (Example 7). The class given is physicochemical. The settings on record: 100 mg/ml oil formulation, 500 ml pH 7 aqueous media, 50 RPM paddle, FIG. 6. The protocol: 100 mg samples of crystalline ceftiofur free acid, amorphous ceftiofur free acid (prepared as described in Example 1) and crystalline ceftiofur hydrochloride, which were all prepared as oil formulations as described in Example 4 above, were loaded into teflon dissolution cells and sealed with a constant surface area dialysis membrane. The loaded cells were placed in a standard dissolution apparatus containing 500 ml of pH 7 aqueous dissolution media which was stirred by a 50 RPM rotating paddle.
The results obtained are shown below in FIG. 6 below.

The nature of data set [4]: Dissolution rate (Table II, FIG. 9). The settings on record: shown graphically in FIG. 9. The data set is classed as physicochemical. The source says:
"Dissolution rate" is the kinetic translation of solubility for a well stirred system under sink conditions.

A further data set is described as follows: Solubility. The data set is classed as physicochemical. The settings on record: for Solubility-pH7: pH 7; for solubility in aqueous solvents, comparison crystalline free acid vs crystalline hydrochloride: in words. The source says: "Solubility" is a direct consequence of a solid's structure and the intermolecular forces holding the solid together and is defined as the mount of drug which exists in solution when equilibrium is achieved between solution and solid state material.

The nature of another data set: Hygroscopity. The class given is physicochemical. The settings on record: for Hygroscopity: Table II. The source says:
"Hygroscopity" is the ability of a compound to pick up moisture from or yield moisture to the atmosphere with changes in relative humidity.

Another data set can be described thus: In vivo release. The settings on record: for In Vivo Release: Table II; for sustained release properties in vivo: in words. The source says:
"In-vivo release" is the biological consequence of the dissolution rate of a compound which is characterized by time to maximum concentration and the maximum concentration in the biological fluid of interest.

A short description of data set [5]: Plasma disposition of oil suspension of ceftiofur crystalline free acid vs aqueous solution of ceftiofur sodium in cattle (Example 6). The data set is classed as in vivo, cattle (Holstein calves). The settings on record: SC; for t>0.2 (time ceftiofur metabolite concentrations remained above 0.2 μg/mL): 2.2 mg ceftiofur activity/kg. The protocol: Sixteen Holstein calves were administered ceftiofur crystalline free acid in an oil suspension (100 mg/mL) or ceftiofur sodium (NAXCEL® Sterile Powder) as an aqueous solution (50 mg/mL) subcutaneously (SC) in a crossover study (each calf received each treatment), with a two-week washout period between doses (2.2 mg ceftiofur activity/kg body weight). Blood samples were obtained serially for 120 hours after drug administration for analysis of ceftiofur and metabolites (measured as desfuroylceftiofur acetamide by HPLC). The primary decision variable was the time ceftiofur metabolite concentrations remained above 0.2 μg/mL (t>0.2), with secondary decision variables being "relative area under the concentration-time curve" (AUC) of the treatments and injection site irritancy assessed antemortem by visual and manual inspection of the injection site over time. Both t>0.2 and AUC were calculated using both the predictive pharmacokinetic equation method and the direct graphical method of trapezoids (AUC) and log-linear interpolation (t>0.2).

A short description of data set [6]: Comparison of time above minimum plasma concentration for ceftiofur derivatives. The data set is classed as in vivo. The source says: Using the criteria for sustained release as the time which plasma concentrations remain above some minimum concentration (t>0.2), a comparison of various derivatives of ceftiofur can be made. […] This difference is of practical and statistical significance.

Data set [7] in a line: Processing (micronization). The class given is physicochemical. The settings on record: Table II, cell wraps: 'Difficult to micronize'.
The nature of data set [8]: Plasma disposition of crystalline ceftiofur hydrochloride and crystalline ceftiofur free acid oil suspensions in cattle (Example 9). The class given is in vivo. The settings on record: SC, 2.2 mg/kg, oil suspension, 16 animals/treatment; separate studies. The method, then: In separate but similarly designed studies conducted in the same laboratory, crystalline ceftiofur free acid (CFA) and crystalline ceftiofur hydrochloride (HCl) suspensions were administered subcutaneously to cattle at a dose of 2.2 mg/kg body weight. In each experiment, plasma samples were obtained for up to 120 hours after drug administration for determination of ceftiofur and its metabolites. The results are shown graphically in FIG. 8 below by plotting plasma concentration (on a logarithmic scale) versus time using average data for 16 animals/treatment. The primary decision criteria (that most related to efficacy) was considered to be the time that the ceftiofur metabolite concentrations remained above 0.2 mcg/ml (t>0.2). Less important parameters measures included "area under the concentration-time curve" (AUC) for each treatment and time to peak and peak concentrations.

A short description of data set [9]: Plasma disposition of aqueous suspensions of ceftiofur crystalline free acid in cattle (Example 5). The class given is in vivo, cattle (Holstein calves). The settings on record: aqueous suspension 100 mg/mL, single dose 1.1 mg ceftiofur activity/kg. The method, then:
Sixteen Holstein calves were administered ceftiofur crystalline free acid in an aqueous suspension (100 mg/mL) by the intramuscular (IM) or subcutaneous (SC) route of administration as a single dose of 1.1 mg ceftiofur activity/kg in a crossover study (each calf got each treatment), with a two-week washout between doses. Blood samples were obtained serially for 120 hours for analysis of ceftiofur and metabolites (measured as desfuroylceftiofur acetamide by HPLC). The primary decision variable was the time ceftiofur metabolite concentrations remained above 0.2 μg/mL (t>0.2), with secondary decision variables being "relative area under the concentration-time curve" (AUC) of the treatments and injection site irritancy assessed antemortem by visual and manual inspection of the injection sites over time. Both t>0.2 and AUC were calculated using both the predictive pharmacokinetic equation method and the direct graphical method of trapezoids (AUC) and log linear interpolation (t>0.2).

[10] abbreviates: unstable in 6 weeks (cell wraps over two lines).
Where [11] appears, read: listed as Crystalline Free Acid.

“Also recorded” adds a separate entry of the source. Structures can show the parent of a compound that is named as a salt. Where two headings read alike, the source gives them in different places.

As for `CON=C(C(=O)NC1C(=O)N2C(C(=O)O)=C(CSC(=O)c3ccco3)CSC12)c1csc(N)n1` (stereo not shown) [amorphous ceftiofur free acid, reference compound], in data set [1], the “AUC (area under the concentration-time curve)” value came to 70 µg·h/mL, the peak concentrations came to 9.1 µg/mL, the “t>0.2 (time metabolite concentrations remained above 0.2 mcg/ml)” value worked out at 41 h and the “time to peak concentration (tmax)” value was 2 h. In [2] (setting [10]), the “Stability in Aqueous Formulations (>90% initial potency)” value (shortened to “Stability … (>90% initial potency)”) was “Unstable”. Also, in data set [3], the “release from the oil formulation into the dissolution media” value is recorded as “very fast release”. In addition, the “Dissolution Rate” value in data set [4] (listed as Amorphous Free Acid) is “Fast”. Moreover, in “Solubility” (listed as Amorphous Free Acid), the Solubility-pH7 entry was “≈ 100 mg/mL”. Moreover, the Hygroscopity result in “Hygroscopity” (listed as Amorphous Free Acid) was “High”. In addition, the “In Vivo Release” value in the data set “In vivo release” (listed as Amorphous Free Acid) is “Fast”.

In the case of `CO/N=C(\C(=O)N[C@@H]1C(=O)N2C(C(=O)O)=C(CSC(=O)c3ccco3)CS[C@H]12)c1csc(N)n1` [ceftiofur sodium], the “t>0.2 (time ceftiofur metabolite concentrations remained above 0.2 μg/mL)” value in data set [5] (aqueous solution 50 mg/mL) is on record as 45.50 h. Also, in data set [6] (aqueous formulations), the “rank order of time above the selected minimum plasma concentration (t>0.2)” value was “sodium<crystalline hydrochloride<crystalline free acid<zinc”. The “rank order of duration above minimum plasma concentration (t>0.2)” value in data set [6] (oil formulations) is reported as “sodium<crystallinehydrochloride<zinc<crystalline free acid”.

As to `CON=C(C(=O)NC1C(=O)N2C(C(=O)O)=C(CSC(=O)c3ccco3)CSC12)c1csc(N)n1` (stereo not shown) [crystalline ceftiofur free acid], the “Processing (micronize)” value in data set [7] (setting [11]) is “Micronizes easier”. In [1], the “AUC (area under the concentration-time curve)” value came to 183 µg·h/mL, the “AUC compared with amorphous ceftiofur free acid” value is “more than twice”, the peak concentrations was 7.3 µg/mL and the “t>0.2 (time metabolite concentrations remained above 0.2 mcg/ml)” value amounted to 101 h. Besides, in data set [1], the “time to peak concentration (tmax)” value came to 8 h. The “Stability … (>90% initial potency)” value in data set [2] (>90% initial potency) is given as “Stable for 6 months”. Besides, in [2] (in words), the “stability (in bulk and formulations) relative to crystalline hydrochloride salt and amorphous free acid” value was “superior”. For the same compound, the “release from the oil formulation into the dissolution media” value in data set [3] was “significantly reduced release”. Moreover, in [5] (crystalline free acid in oil, 2.2 mg/kg), the “terminal phase half-life (absorption phase, flip-flop model) compared with ceftiofur sodium” value is recorded as “longer”. Also, the “t>0.2 (time ceftiofur metabolite concentrations remained above 0.2 μg/mL)” value in data set [5] (oil suspension 100 mg/mL, P<0.0001 vs ceftiofur sodium) amounted to 121.58 h. The “bioavailability compared with aqueous solution of ceftiofur sodium” value in data set [5] (oil suspension vs aqueous solution, 2.2 mg/kg, P>0.05) is reported as “equally bioavailable”. In addition, the “rank order of time above the selected minimum plasma concentration (t>0.2)” value in [6] (aqueous formulations) is recorded as “sodium<crystalline hydrochloride<crystalline free acid<zinc”. Also, in data set [6] (oil formulations), the “rank order of duration above minimum plasma concentration (t>0.2)” value is reported as “the longest”. Further, the “Dissolution Rate” value in [4] was “slow dissolution rate; also recorded: slower”. Moreover, the “Dissolution Rate” value in [4] (setting [11]) is on record as “Slow”. The “t>0.2 (time metabolite concentrations remained above 0.2 mcg/ml)” value in [8] stood at 121.6 h. Besides, the “t>0.2 (time ceftiofur metabolite concentrations remained above 0.2 μg/mL)” value in data set [9] (IM) came to 26.98 h. The “t>0.2 (time ceftiofur metabolite concentrations remained above 0.2 μg/mL)” value in data set [9] (SC, P=0.257 vs IM) is on record as 30.43 h. Further, the “solubility in aqueous solvents, comparison crystalline free acid vs crystalline hydrochloride” value in “Solubility” is “lower solubility in aqueous solvents than its crystalline hydrochloride salt”. The “solubility in non-polar solvents” value in “Solubility” (non-polar solvents) was “insoluble in non-polar solvents”. The Solubility-pH7 entry in “Solubility” (setting [11]) is “≈ 8 mg/mL”. Moreover, in “Solubility” (water), the solubility in water result is reported as “sparingly soluble in water”. Also, the Hygroscopity entry in the data set “Hygroscopity” (setting [11]) is on record as “Low”. Further, the “hygroscopicity relative to crystalline hydrochloride salt and amorphous free acid” value in the data set “Hygroscopity” (in words) was “superior”. In the data set “In vivo release” (setting [11]), the “In Vivo Release” value was “Prolonged”. Besides, the “sustained release properties in vivo” value in the data set “In vivo release” is listed as “has sustained release properties in vivo”.

Turning to `CO/N=C(\C(=O)N[C@@H]1C(=O)N2C(C(=O)O)=C(CSC(=O)c3ccco3)CS[C@H]12)c1csc(N)n1` [crystalline ceftiofur hydrochloride, reference compound], the “Processing (micronize)” value in data set [7] is recorded as “Micronizes easier”. Also, the “Stability … (>90% initial potency)” value in data set [2] (setting [10]) is recorded as “Unstable”. The “release from the oil formulation into the dissolution media” value in data set [3] is on record as “very fast release”. Moreover, in data set [4], the “Dissolution Rate” value is listed as “Fast”. Also, the “t>0.2 (time metabolite concentrations remained above 0.2 mcg/ml)” value in [8] worked out at 38.5 h. Further, in “Solubility”, the “solubility in aqueous solvents, comparison crystalline free acid vs crystalline hydrochloride” value is recorded as “much greater solubility than the crystalline free acid”. Moreover, the solubility in “Solubility” (pH 7, pH 7, cell of crystalline hydrochloride salt, read-out: Solubility-pH7) was approximately 100 mg/mL. In the data set “Hygroscopity”, the Hygroscopity result is reported as “Moderate”. In the data set “In vivo release”, the “In Vivo Release” value was “Fast” and the “sustained release properties in vivo” value is on record as “does not have useful sustained release properties”.

zinc: in [6] (in vivo), the “rank order of duration above minimum plasma concentration (t>0.2)” value is recorded as “sodium<crystallinehydrochloride<zinc<crystalline free acid” and the “rank order of time above the selected minimum plasma concentration (t>0.2)” value was “sodium<crystalline hydrochloride<crystalline free acid<zinc”.

Values taken from patent US5721359A, “Crystalline ceftiofur free acid” (Pharmacia & Upjohn Company, priority 1995, dated 1998).
